Converted amounts (≈) assume the structure as drawn. Where two headings read alike, the source gives them in different places. Values belong to the compound of their own block, whether it stands above or below them.
How the values were obtained:
[1] = In vivo pharmacokinetics study in fasted rats; parameters: species or system Sprague Dawley rats; conditions: for DTX AUC / BIC AUC: mean ± SEM
Procedure: Healthy female and male Sprague Dawley rats of 7 weeks age weighing 140–240 g (Charles River, Denmark), were used for the experiments. The rats were housed with free access to water and food in groups of two rats per cage under controlled environmental conditions (constant temperature and humidity with a 12 h day-night cycle). All animal experimental work was carried out under the protocol approved by the Danish Animal Experiments Inspectorate (approval no. 2014-15-0201-00031), and all the procedures used were refined to provide maximal comfort and minimal stress to the animals.
All animals were fasted for approximately 12 h prior to administration of the drug formulations and food was provided to rats approximately 6 h after drug administration, although free access to water was allowed during fasting. The nine groups studied, each consisting of 6–8 rats, were assigned randomly and included two groups receiving an intravenous bolus injection of either DTX or BIC corresponding to 1 mg/rat (4–7 mg/kg) dissolved in saline: DMSO (50:50 v/v) with 1% Tween 80, administered in the tail vein. The remaining seven groups were orally administered with DTX or BIC or a combination of these at a fixed dose of 30 mg/kg for DTX and 16 mg/kg for BIC. For DTX, four groups of animals were studied, one group administered with crystalline DTX (crystalline), one group administered with a physical mixture of crystalline DTX and BIC (physical mix), one group administered with amorphous DTX (amorphous) and one group administered with the co-amorphous mixture of DTX and BIC (co-amorphous). For BIC three groups of animals were studied, one group administered with crystalline BIC (crystalline), one groups administered with a physical mixture of crystalline DTX and BIC (physical mix) and one group administered with the co-amorphous mixture of DTX and BIC (co-amorphous). Drug powders were suspended in 0.5 mL PBS and the suspension was immediately administered to the rats using a flexible cannula. Blood samples (150–200 µL) were collected in EDTA coated tubes from puncturing of the tail vein at 0.5, 1, 2, 4, 6 and 24 h after drug administration. The rats were euthanized by cervical dislocation after collection of the final blood sample. Plasma samples were obtained by centrifugation of blood samples at 3600 g (10 min, 4 °C) and transferred into microtubes. The plasma samples were stored at −80 °C until used for further analysis.
The bioanalysis of DTX and BIC in rat plasma was carried out using HPLC coupled with mass spectrometric (MS) detection. Prior to analysis liquid-liquid extraction was performed on the plasma samples (50 μL) by adding 100 μL of ethyl acetate and subsequently vortexing the vial for protein precipitation. The vials were centrifuged and 100 μL supernatant was carefully transferred to HPLC vials with inserts and evaporated using compressed air. The dried content of the vial was reconstituted using 150 μL ACN:H2O (1:1 v/v) and measured by LC-MS/MS.
LC-MS/MS analysis was performed using a 1290 Agilent Infinity Series system (Agilent Technologies, Palo Alto, CA, USA) coupled to an AB Sciex 4500 QTrap MS (Applied Biosystems, Foster City, CA, USA). A HPLC-MS method was developed for each compound. In both cases chromatographic separation was performed using a Phenomenex Kinetex (Torrance, CA, USA) C18 (50 × 2.1 mm, 2.6 μm) column with a Phenomenex C18 SecurityGuard™ Ultra (2.1 mm, 2 µm) guard column and the mobile phases consisted of (A) MilliQ water with 0.1% formic acid and (B) ACN with 0.1% formic acid. The column and autosampler tray were set at 40 °C and 6 °C, respectively, and the flow rate was set at 0.25 mL/min. The injection volume was set at 1 μL and 5 μL for BIC and DTX, respectively. For BIC, the elution gradient started at 20% B at time 0 and increased to […] at time 3.0 min. Hereafter B was held at 99% until 4.3 min before re-equilibrating the column until 5.5 min. The retention time for BIC was 3.12 min. […]

[2] = Physical stability on storage, analysed by XRPD; assay type: physicochemical; conditions: 1.5 years at 4 °C under dry conditions
Procedure: XRPD was performed using an X’Pert PANalytical PRO X-ray diffractometer (PANalytical, Almelo, The Netherlands) using Cu Kα radiation (λ = 1.54 Å), and an acceleration voltage and current of 45 kV and 40 mA, respectively. The powder samples were scanned in reflectance mode from 5° to 35° 2ϴ with a scan speed of 0.067° 2ϴ and a step size of 0.026° 2ϴ. Data were collected and analyzed using the software X’Pert Data Collector (PANalytical, Almelo, The Netherlands).
The co-amorphous binary DTX-BIC mixture as well as the pure individual amorphous drugs were stored in a desiccator under dry conditions (silica gel) at 4 °C and analysed by XRPD after 1.5 years of storage.

[3] = Dissolution studies in FaSSIF biorelevant medium; assay type: physicochemical; conditions: 37 °C
Procedure: The concentrations of DTX and BIC were determined using a reversed-phase high-performance liquid chromatography (HPLC) system (Dionex Corporation, CA, USA) equipped with an ASI-100 autosampler, Dionex Ultimate 300 UV-Visible detector and pump. Chromatographic separation was achieved using a XB-C18 Phenomenex Kinetex column of 2.6 μm (2.1 × 50 mm) (Torrance, CA, USA) at 30 °C. The mobile-phase consisted of a mixture of A) 95% water 5% acetonitrile (ACN) and 0.1% trifluoroacetic acid (TFA) and B) 95% ACN 5% water 0.1% TFA, and was used at a flow rate of 0.5 mL/min in isocratic mode (60% A 40% B). Peaks were analysed at 270 nm for BIC and 230 nm for DTX. Linear calibration curves in the range of 0.25–5 μg/mL for both BIC and DTX were obtained in acetonitrile. Elution times were 4.8 min for BIC and 6.4 min for DTX.
For the dissolution studies, powder formulations were initially suspended in PBS in order to avoid powder agglomerates. Immediately after suspension, 100 µL aliquots were added to each well of a 12-well plate containing 2.9 mL dissolution medium/well. The concentrations of the drugs in the dissolution medium were 3 times higher than their respective saturation solubilities. […] The obtained samples were centrifuged at 10,000 g for 10 min and the supernatant was then analysed by HPLC (see above). […]

[4] = Saturation solubility studies in FaSSIF; assay type: physicochemical; conditions: crystalline drugs, FaSSIF pH 6.5, after 72 h with excess drug powder
Procedure: DTX and BIC saturation solubility studies were conducted in FaSSIF. The biorelevant FaSSIF medium was prepared by adding 218 mg bovine bile extract, 58 mg phosphatidylcholine, 232 mg Tris maleate salt and 395 mg sodium chloride to 100 mL of ultra-purified water and stirring overnight at 37 °C. The medium pH was adjusted to 6.5 with 1 M NaOH before use. Approximately 100 mg of the drugs were mixed with 1.5 mL of the media in plastic tubes, and the suspensions were rotated at 20 rpm for 72 h. The solution was separated from undissolved drug by centrifugation, and aliquots from the saturated solution were filtered through 0.45 µm polyvinylidene difluoride (PVDF) filters. The solubility may potentially have been influenced by exposure to temperature since both, centrifugation and filtration, were conducted at room temperature.
The concentrations of DTX and BIC were determined using a reversed-phase high-performance liquid chromatography (HPLC) system (Dionex Corporation, CA, USA) equipped with an ASI-100 autosampler, Dionex Ultimate 300 UV-Visible detector and pump. Chromatographic separation was achieved using a XB-C18 Phenomenex Kinetex column of 2.6 μm (2.1 × 50 mm) (Torrance, CA, USA) at 30 °C. […] Peaks were analysed at 270 nm for BIC and 230 nm for DTX. […]

[5] = parameters: method as in Valicherla et al. [19]; conditions: oral drug delivery strategy for DTX (self-emulsifying drug delivery system), rats, ref Valicherla et al. [19]; cited from earlier work
[6] = parameters: method as in Zhang et al. [20]; conditions: oral drug delivery strategy for DTX (cyclodextrin-based polymeric micelle), mice, ref Zhang et al. [20]; cited from earlier work
[7] = DTX in plasma, oral suspension, 30 mg/kg DTX, 30 mg/kg
[8] = oral suspension, 30 mg/kg DTX, Fa = AUCoral/AUCIV × 100, mean ± SEM, 30 mg/kg
[9] = intravenous bolus, 1 mg/rat (4–7 mg/kg)

SMILES: CC(=O)O[C@@]12CO[C@@H]1C[C@H](O)[C@@]1(C)C(=O)[C@H](O)C3=C(C)[C@@H](OC(=O)[C@H](O)[C@@H](NC(=O)OC(C)(C)C)c4ccccc4)C[C@@](O)([C@@H](OC(=O)c4ccccc4)[C@H]21)C3(C)C [Amorphous DTX, Docetaxel]
DTX Cmax [1, 7]: 19 ng/mL
DTX Tmax [1, 7]: 6 h
DTX AUC [1, 7]: 518 ± 113 ng/mL × 24h
DTX Fa (absolute oral bioavailability) [1, 8]: 0.56 ± 0.12%
physical stability (solid state by XRPD) after storage [2]: remained amorphous
DTX supersaturation behaviour ([3]; DTX in FaSSIF, up to 240 min): does not supersaturate

SMILES: CC(O)(CS(=O)(=O)c1ccc(F)cc1)C(=O)Nc1ccc(C#N)c(C(F)(F)F)c1 (centres unmarked) [Crystalline BIC, bicalutamide]
BIC AUC ([1]; BIC in plasma, oral suspension, 16 mg/kg BIC): 43.06 ± 4.79 µg/mL × 24h
Cmax ([1]; both sexes, Sprague Dawley, rat, plasma, po, 16 mg/kg, BIC in plasma, oral suspension, 16 mg/kg BIC, read-out: BIC Cmax): 1660 ng/mL
Tmax ([1]; both sexes, Sprague Dawley, rat, plasma, po, 16 mg/kg, BIC in plasma, oral suspension, 16 mg/kg BIC, read-out: BIC Tmax): 6 h
bioavailability ([1]; both sexes, Sprague Dawley, rat, plasma, po, 16 mg/kg, BIC, oral suspension, 16 mg/kg BIC, Fa = AUCoral/AUCIV × 100, mean ± SEM, read-out: BIC Fa (absolute oral bioavailability)): 14 ± 1%

SMILES: CC(=O)O[C@@]12CO[C@@H]1C[C@H](O)[C@@]1(C)C(=O)[C@H](O)C3=C(C)[C@@H](OC(=O)[C@H](O)[C@@H](NC(=O)OC(C)(C)C)c4ccccc4)C[C@@](O)([C@@H](OC(=O)c4ccccc4)[C@H]21)C3(C)C [Crystalline DTX, Docetaxel]
DTX Tmax [1, 7]: 4 h
DTX Tmax ([1]; DTX in plasma, oral suspension, 30 mg/kg DTX, listed as crystalline DTX, 30 mg/kg): around 1 h
DTX AUC [1, 7]: 185 ± 29 ng/mL × 24h
DTX Fa (absolute oral bioavailability) [1, 8]: 0.20 ± 0.03%
Cmax ([1]; both sexes, Sprague Dawley, rat, plasma, po, 30 mg/kg, DTX in plasma, oral suspension, 30 mg/kg DTX, read-out: DTX Cmax): 15 ng/mL

SMILES: CC(=O)O[C@@]12CO[C@@H]1C[C@H](O)[C@@]1(C)C(=O)[C@H](O)C3=C(C)[C@@H](OC(=O)[C@H](O)[C@@H](NC(=O)OC(C)(C)C)c4ccccc4)C[C@@](O)([C@@H](OC(=O)c4ccccc4)[C@H]21)C3(C)C [DTX, Docetaxel]
Tmax ([1]; both sexes, Sprague Dawley, plasma, intravenous bolus, 1 mg/rat (4–7 mg/kg), read-out: DTX Tmax): 0.5 h
Cmax ([1]; both sexes, Sprague Dawley, rat, plasma, iv, 1 mg, intravenous bolus, 1 mg/rat (4–7 mg/kg), read-out: DTX Cmax): 7210 ng/mL
DTX AUC [1, 9]: 93,196 ± 12,626 ng/mL × 24h
Cmax [5]: 125 ng/mL
relative bioavailability increase [5]: 3.2 fold
solubility at 72 h [4]: 7.5 ± 1.2 µg/mL (≈ 9.28 µM)
Cmax [6]: 292 ng/mL
relative bioavailability increase [6]: 4.6 fold

Further lines, results first:

Cmax ([1]; both sexes, Sprague Dawley, rat, plasma, iv, 1 mg, intravenous bolus, 1 mg/rat (4–7 mg/kg), read-out: BIC Cmax): 11300 ng/mL
Tmax ([1]; both sexes, Sprague Dawley, rat, plasma, iv, 1 mg, intravenous bolus, 1 mg/rat (4–7 mg/kg), read-out: BIC Tmax): 0.5 h
BIC AUC [1, 9]: 317 µg/mL × 24h
solubility at 72 h [4]: 3.05 ± 0.9 µg/mL (≈ 7.09 µM)
SMILES: CC(O)(CS(=O)(=O)c1ccc(F)cc1)C(=O)Nc1ccc(C#N)c(C(F)(F)F)c1 (centres unmarked) [BIC, bicalutamide]

physical stability (solid state by XRPD) after storage [2]: recrystallized
time after which the saturation solubility of BIC is reached ([3]; BIC in FaSSIF): 120 min
SMILES: CC(O)(CS(=O)(=O)c1ccc(F)cc1)C(=O)Nc1ccc(C#N)c(C(F)(F)F)c1 (centres unmarked) [Amorphous BIC, bicalutamide]
